This is an account of results in patent publication US20250098679A1, “HERBICIDAL PYRIDONE DERIVATIVES” (SYNGENTA CROP PROTECTION AG, priority 2021, published 2025).

Assay type in all cases: in vivo
For assay [1], the system named is Echinochloa crus-galli (ECHCG). Put plainly: Post-emergence Test, Echinochloa crus-galli (ECHCG). Further details: key to percentage damage caused to the plant, ECHCG (five-point scale): 5=81-100%, 4=61-80%, 3=41-60%, 2=21-40%, 1=0-20% damage. The conditions noted are these: 250 g/Ha, evaluated after 13 days. The gist of the method:
(§1)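 Percent plant damage was rated 13 days post-application on a 1–5 scale (1=0-20%, 5=81-100%). Application used an aqueous acetone (50:50)/0.5% Tween 20 spray, normally 1000 g/ha, with controlled glasshouse conditions (24/16 °C, 14 h light, 65% humidity).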

The test system of assay [2] is Echinochloa crus-galli (ECHCG). Put plainly: Pre-emergence Test, Echinochloa crus-galli (ECHCG). The conditions noted are these: evaluated after 13 days.
In assay [3] the test system is Ipomoea hederacea (IPOHE). Put plainly: Pre-emergence Test, Ipomoea hederacea (IPOHE). The conditions noted are these: evaluated after 13 days.
In assay [4] the test system is Zea mays (ZEAMX). The experiment in a line: Post-emergence Test, Zea mays (ZEAMX). Further details: key to percentage damage caused to the plant, ZEAMX (five-point scale): 5=81-100%, 4=61-80%, 3=41-60%, 2=21-40%, 1=0-20% damage. The conditions noted are these: evaluated after 13 days. An outline of the steps: as §1
For assay [5], the system named is Ipomoea hederacea (IPOHE). Put plainly: Post-emergence Test, Ipomoea hederacea (IPOHE). Particulars: evaluated after 13 days. Further details: key to percentage damage caused to the plant, IPOHE (five-point scale): 5=81-100%, 4=61-80%, 3=41-60%, 2=21-40%, 1=0-20% damage. The gist of the method: as §1
In assay [6] the test system is Amaranthus retoflexus (AMARE). Put plainly: Post-emergence Test, Amaranthus retoflexus (AMARE). Further details: key to percentage damage caused to the plant, AMARE (five-point scale): 5=81-100%, 4=61-80%, 3=41-60%, 2=21-40%, 1=0-20% damage. The conditions noted are these: evaluated after 13 days. The gist of the method: as §1
In assay [7] the test system is Amaranthus palmeri (AMAPA). The experiment in a line: Post-emergence Test, Amaranthus palmeri (AMAPA). Further details: key: 5=81-100%, 4=61-80%, 3=41-60%, 2=21-40%, 1=0-20% damage. Particulars: evaluated after 13 days. An outline of the steps:
as §1

Assay [8] concerns Amaranthus palmeri (AMAPA). Put plainly: Pre-emergence Test, Amaranthus palmeri (AMAPA). Particulars: evaluated after 13 days.
The subject of assay [9] is Amaranthus retoflexus (AMARE). Put plainly: Pre-emergence Test, Amaranthus retoflexus (AMARE). The conditions noted are these: evaluated after 13 days.
The subject of assay [10] is Zea mays (ZEAMX). The experiment in a line: Pre-emergence Test, Zea mays (ZEAMX). Particulars: evaluated after 13 days.
The test system of a further assay is Setaria faberi (SETFA). Put plainly: Post-emergence Test, Setaria faberi (SETFA). Further details: key to percentage damage caused to the plant, SETFA (five-point scale): 5=81-100%, 4=61-80%, 3=41-60%, 2=21-40%, 1=0-20% damage. The conditions noted are these: 1000 g/ha, evaluated after 13 days. The gist of the method: as §1

As to `CCn1c(Cn2ccc([N+](=O)[O-])n2)cc(=O)c(C(=O)O)c1-c1ccc(Cl)c(Cl)c1` [Compound 178, 2-(3,4-dichlorophenyl)-1-ethyl-6-[(3-nitropyrazol-1-yl)methyl]-4-oxo-pyridine-3-carboxylic acid], in assay [1], the “percentage damage caused to the plant, ECHCG (five-point scale)” value is 1 (1=0-20%). The “Pre-emergence Test ECHCG, percentage damage caused to the plant (five-point scale)” value is reported as 1 (1=0-20%) in assay [2] (250 g/Ha (*)) and 2 (2=21-40%) in assay [2] (1000 g/ha). The “Pre-emergence Test IPOHE, percentage damage caused to the plant (five-point scale)” value in assay [3] (250 g/Ha (*)) and in assay [3] (1000 g/ha) was 0 each time. The “percentage damage caused to the plant, ZEAMX (five-point scale)” value in the assay with Zea mays (ZEAMX) [4] (250 g/Ha) and in the assay on Zea mays (ZEAMX) [4] (1000 g/ha) was 0 in each case. In addition, the figures for the “percentage damage caused to the plant, IPOHE (five-point scale)” value in assay [5] (250 g/Ha) and in [5] (1000 g/ha) were 1 (1=0-20%) and 0, respectively. Moreover, the “percentage damage caused to the plant, AMARE (five-point scale)” value is 0 in [6] (250 g/Ha) and 1 (1=0-20%) in assay [6] (1000 g/ha). For the same compound, the “percentage damage caused to the plant, AMAPA (five-point scale)” value in [7] (250 g/Ha) and in [7] (1000 g/ha) was 1 (1=0-20%) throughout. The “Pre-emergence Test AMAPA, percentage damage caused to the plant (five-point scale)” value in assay [8] (250 g/Ha (*)) and in assay [8] (1000 g/ha) was 0 each time. Further, the “Pre-emergence Test AMARE, percentage damage caused to the plant (five-point scale)” value in [9] (250 g/Ha (*)) and in assay [9] (1000 g/ha) was 0 in each case. For the same compound, the “Pre-emergence Test ZEAMX, percentage damage caused to the plant (five-point scale)” value in the assay on Zea mays (ZEAMX) [10] (250 g/Ha (*)) and in the assay with Zea mays (ZEAMX) [10] (1000 g/ha) was 0 each time. Moreover, the “percentage damage caused to the plant, SETFA (five-point scale)” value in the assay on Setaria faberi (SETFA) is recorded as 2 (2=21-40%).

For the compound `CCn1c(Cn2ccc(C3CC3)n2)cc(=O)c(C(=O)O)c1-c1ccc(Cl)c(Cl)c1` [Compound 179, 6-[(3-cyclopropylpyrazol-1-yl)methyl]-2-(3,4-dichlorophenyl)-1-ethyl-4-oxo-pyridine-3-carboxylic acid], the “percentage damage caused to the plant, ECHCG (five-point scale)” value in assay [1] is on record as 3 (3=41-60%). Moreover, the “Pre-emergence Test ECHCG, percentage damage caused to the plant (five-point scale)” value in assay [2] (250 g/Ha (*)) is listed as 1 (1=0-20%); in [2] (1000 g/ha), 5 (5=81-100%). In addition, the results for the “Pre-emergence Test IPOHE, percentage damage caused to the plant (five-point scale)” value in assay [3] (250 g/Ha (*)) and in assay [3] (1000 g/ha) were 0 and 4 (4=61-80%), respectively. Further, the figures for the “percentage damage caused to the plant, ZEAMX (five-point scale)” value in the assay on Zea mays (ZEAMX) [4] (250 g/Ha) and in the assay on Zea mays (ZEAMX) [4] (1000 g/ha) were 3 (3=41-60%) and 4 (4=61-80%), respectively. Further, the “percentage damage caused to the plant, IPOHE (five-point scale)” value in assay [5] (250 g/Ha) and in assay [5] (1000 g/ha) was 4 (4=61-80%) throughout. Moreover, the “percentage damage caused to the plant, AMARE (five-point scale)” value was 0 in [6] (250 g/Ha) and 3 (3=41-60%) in [6] (1000 g/ha). For the same compound, the “percentage damage caused to the plant, AMAPA (five-point scale)” value in assay [7] (250 g/Ha) is listed as 1 (1=0-20%); in assay [7] (1000 g/ha), 3 (3=41-60%). In addition, the “Pre-emergence Test AMAPA, percentage damage caused to the plant (five-point scale)” value in assay [8] (250 g/Ha (*)) is 0; in assay [8] (1000 g/ha) it was 2 (2=21-40%). Further, in assay [9] (1000 g/ha), the “Pre-emergence Test AMARE, percentage damage caused to the plant (five-point scale)” value was 4 (4=61-80%). Besides, the “Pre-emergence Test ZEAMX, percentage damage caused to the plant (five-point scale)” value with Zea mays (ZEAMX) [10] (250 g/Ha (*)) is 0; in the assay on Zea mays (ZEAMX) [10] (1000 g/ha), 5 (5=81-100%). Besides, in the assay on Setaria faberi (SETFA), the “percentage damage caused to the plant, SETFA (five-point scale)” value is recorded as 4 (4=61-80%).

Regarding `CCn1c(Cn2ccc(C(C)=O)n2)cc(=O)c(C(=O)O)c1-c1ccc(Cl)c(Cl)c1` [Compound 180, 6-[(3-acetylpyrazol-1-yl)methyl]-2-(3,4-dichlorophenyl)-1-ethyl-4-oxo-pyridine-3-carboxylic acid], the “percentage damage caused to the plant, ECHCG (five-point scale)” value in assay [1] is on record as 1 (1=0-20%). For the same compound, in assay [2] (1000 g/ha), the “Pre-emergence Test ECHCG, percentage damage caused to the plant (five-point scale)” value is reported as 1 (1=0-20%). Also, in assay [3] (1000 g/ha), the “Pre-emergence Test IPOHE, percentage damage caused to the plant (five-point scale)” value came out at 0. Also, the “percentage damage caused to the plant, ZEAMX (five-point scale)” value in the assay with Zea mays (ZEAMX) [4] (250 g/Ha) is 0; with Zea mays (ZEAMX) [4] (1000 g/ha) it was 1 (1=0-20%). Also, the “percentage damage caused to the plant, IPOHE (five-point scale)” value in assay [5] (250 g/Ha) is 0; in assay [5] (1000 g/ha), 1 (1=0-20%). In addition, the “percentage damage caused to the plant, AMARE (five-point scale)” value was 0 in assay [6] (250 g/Ha) and 1 (1=0-20%) in assay [6] (1000 g/ha). The “percentage damage caused to the plant, AMAPA (five-point scale)” value in assay [7] (250 g/Ha) and in assay [7] (1000 g/ha) was 0 in each case. Moreover, the “Pre-emergence Test AMAPA, percentage damage caused to the plant (five-point scale)” value in assay [8] (1000 g/ha) is 1 (1=0-20%). In addition, the “Pre-emergence Test AMARE, percentage damage caused to the plant (five-point scale)” value in assay [9] (1000 g/ha) was 2 (2=21-40%). Moreover, the “Pre-emergence Test ZEAMX, percentage damage caused to the plant (five-point scale)” value with Zea mays (ZEAMX) [10] (1000 g/ha) is 0. Besides, the “percentage damage caused to the plant, SETFA (five-point scale)” value with Setaria faberi (SETFA) was 1 (1=0-20%).

For the compound `CCn1c(Cn2ccc(OCC(F)(F)F)n2)cc(=O)c(C(=O)O)c1-c1ccc(Cl)c(Cl)c1` [Compound 185, 2-(3,4-dichlorophenyl)-1-ethyl-4-oxo-6-[[3-(2,2,2-trifluoroethoxy)pyrazol-1-yl]methyl]pyridine-3-carboxylic acid], the “percentage damage caused to the plant, ECHCG (five-point scale)” value in [1] is given as 3 (3=41-60%). Also, the “Pre-emergence Test ECHCG, percentage damage caused to the plant (five-point scale)” value is given as 1 (1=0-20%) in [2] (250 g/Ha (*)) and 5 (5=81-100%) in assay [2] (1000 g/ha). For the same compound, the figures for the “Pre-emergence Test IPOHE, percentage damage caused to the plant (five-point scale)” value in [3] (250 g/Ha (*)) and in assay [3] (1000 g/ha) were 1 (1=0-20%) and 3 (3=41-60%), respectively. Further, the figures for the “percentage damage caused to the plant, ZEAMX (five-point scale)” value in the assay on Zea mays (ZEAMX) [4] (250 g/Ha) and in the assay on Zea mays (ZEAMX) [4] (1000 g/ha) were 1 (1=0-20%) and 4 (4=61-80%), respectively. Further, the “percentage damage caused to the plant, IPOHE (five-point scale)” value in [5] (250 g/Ha) and in assay [5] (1000 g/ha) was 3 (3=41-60%) each time. The “percentage damage caused to the plant, AMARE (five-point scale)” value is listed as 1 (1=0-20%) in [6] (250 g/Ha) and 3 (3=41-60%) in assay [6] (1000 g/ha). The “percentage damage caused to the plant, AMAPA (five-point scale)” value in assay [7] (250 g/Ha) was 1 (1=0-20%); in assay [7] (1000 g/ha) it was 3 (3=41-60%). Moreover, the “Pre-emergence Test AMAPA, percentage damage caused to the plant (five-point scale)” value in assay [8] (250 g/Ha (*)) is reported as 1 (1=0-20%); in assay [8] (1000 g/ha), 2 (2=21-40%). For the same compound, the “Pre-emergence Test AMARE, percentage damage caused to the plant (five-point scale)” value in assay [9] (250 g/Ha (*)) is 1 (1=0-20%); in assay [9] (1000 g/ha) it was 3 (3=41-60%). Besides, the “Pre-emergence Test ZEAMX, percentage damage caused to the plant (five-point scale)” value is 0 with Zea mays (ZEAMX) [10] (250 g/Ha (*)) and 3 (3=41-60%) in the assay on Zea mays (ZEAMX) [10] (1000 g/ha). In addition, in the assay on Setaria faberi (SETFA), the “percentage damage caused to the plant, SETFA (five-point scale)” value is given as 4 (4=61-80%).
